Experimental data reported in US9713651B2, “Compositions, methods, and systems for the synthesis and use of imaging agents” (Lantheus Medical Imaging, Inc., priority 2012, dated 2017).

What follows are molecules tested on hepatocytes (assay: Metabolic profiling of imaging agents in cryopreserved hepatocytes (HPLC with radiodetection)). Conditions: hepatocytes 1×10^6 cells/mL, 37° C./5% CO2; species and incubation time not given.
Assay type: in vitro ADME
Description: Cryopreserved hepatocytes were purchased from Celsis/In Vitro Technologies, Inc. (Baltimore, Md.) and stored at −150° C. prior to use. Multiple lots of hepatocytes for human (mixed sexes 5-donor pool), primate (male, rhesus monkey), dog (male, beagle), rabbit (male, New Zealand white) and rat (male, Sprague-Dawley) were used. On the day of the study, hepatocytes in cryopreserved vials were vented to release any liquid N2 then placed into a 37° C. water bath for 75-90 seconds to thaw. The hepatocytes were transferred into pre-warmed KHB and centrifuged for 5 min at 50×g. The supernatant was discarded and the hepatocytes re-suspended in KHB at a concentration of 1×10^6 cells/mL. Cell viability was confirmed by Trypan blue exclusion.
Test compounds were incubated in hepatocytes (1×10^6 cells/mL; 0.5 mL) were incubated for 0, 15, 30, 60 or 180 min at 37° C./5% CO2 then transferred directly into acetonitrile (1.0 mL), vortexed for 30 s and centrifuged at 2500×g for 20 min. The supernatant was then transferred to a new centrifuge tube, acetonitrile evaporated under a stream of nitrogen in a heating block at 37° C. and, following re-constitution in water, assayed by HPLC with radiodetection.
Extracted samples and standards were analyzed on an Agilent 1100 HPLC (Agilent Technologies, Burlington, Mass.) using a Phenomenex Luna C18 column (5μ; 4.6×150 mm), maintained at ambient temperature (25° C.), and a flow rate of 1.0 mL/min. Mobile phase A contained 0.1% formic acid in water, and mobile phase B contained 0.1% formic acid in acetonitrile. A linear gradient from 5 to 90% B over 15 min was used for elution. A 5 min post-time of 5% B was used to re-equilibrate the column. Radioactive products were recorded using in-line γ- or β-flow detectors (INUS, Tampa, Fla.).
In the case of CC(C)(C)n1ncc(OCc2ccc(OCCCF)c(Cl)c2)c(Cl)c1=O [Example 25, 2-(tert-butyl)-4-chloro-5-((3-chloro-4-(3-fluoropropoxyl)benzyl)oxy)pyridazin-3(2H)-one], the “% Parent Remaining” value is reported as 71%.
In the case of CC(C)(C)n1ncc(OCc2cccc(COCCF)c2)c(Cl)c1=O [Example 35, 2-(tert-butyl)-4-chloro-5-((3-((2-fluoroethoxy)methyl)benzyl)oxy)pyridazin-3(2H)-one], the “% Parent Remaining” value is reported as 30%.
In the case of Cc1c(OCc2ccc(COCCF)cc2)cnn(C(C)(C)C)c1=O [Example 40], the “% Parent Remaining” value is reported as 34%.
CC(C)(C)n1ncc(OCc2ccc(C#CCCF)cc2)c(Cl)c1=O [Example 43, 2-(tert-butyl)-4-chloro-5-((4-(4-fluorobut-1-yn-1-yl)benzyl)oxy)pyridazin-3(2H)-one] was tested, and the “% Parent Remaining” value was 63%.
In the case of CC(C)(C)n1ncc(OCc2ccc(C(=O)OCCF)cc2)c(Cl)c1=O [Example 45, 2-fluoroethyl 4-(((1-(tert-butyl)-5-chloro-6-oxo-1,6-dihydropyridazin-4-yl)oxy)methyl)benzoate], the “% Parent Remaining” value is reported as 19%.
For CC(C)(C)n1ncc(OCc2ccc(-c3cnc(F)nc3)cc2)c(Cl)c1=O [Example 48C, 2-(tert-butyl)-4-chloro-5-((4-(2-fluoropyrimidin-5-yl)benzyl)oxy)pyridazin-3(2H)-one], the “% Parent Remaining” value was 95%.
In the case of CC(C)(C)n1ncc(OCc2ccc(C(=O)OCCCF)cc2)c(Cl)c1=O [Example 57B, 3-fluoropropyl 4-(((1-(tert-butyl)-5-chloro-6-oxo-1,6-dihydropyridazin-4-yl)oxy)methyl)benzoate], the “% Parent Remaining” value is reported as 31%.
In the case of CC(C)(C)n1ncc(CCc2ccc(COCCF)cc2)c(Cl)c1=O [Example 61], the “% Parent Remaining” value is reported as 6%.
For CC(C)(C)n1ncc(OCc2ccc([Si](F)(C(C)(C)C)C(C)(C)C)cc2)c(Cl)c1=O [Example 62B, 2-(tert-butyl)-4-chloro-5-((4-(di-tert-butylfluorosilyl)benzyl)oxy)pyridazin-3 (2H)-one], the “% Parent Remaining” value was 98%.
